# Results from patent US20240254143A1, “OREXIN RECEPTOR AGONISTS AND USES THEREOF” (JAZZ PHARMACEUTICALS IRELAND LIMITED, priority 2021, published 2024).
# Molecular target: T1, human recombinant OX2 (hOX2) receptor (Homo sapiens, UniProt O43614)
# T1 construct: host or cells: CHO cells
# T1 sequence (O43614 1-444): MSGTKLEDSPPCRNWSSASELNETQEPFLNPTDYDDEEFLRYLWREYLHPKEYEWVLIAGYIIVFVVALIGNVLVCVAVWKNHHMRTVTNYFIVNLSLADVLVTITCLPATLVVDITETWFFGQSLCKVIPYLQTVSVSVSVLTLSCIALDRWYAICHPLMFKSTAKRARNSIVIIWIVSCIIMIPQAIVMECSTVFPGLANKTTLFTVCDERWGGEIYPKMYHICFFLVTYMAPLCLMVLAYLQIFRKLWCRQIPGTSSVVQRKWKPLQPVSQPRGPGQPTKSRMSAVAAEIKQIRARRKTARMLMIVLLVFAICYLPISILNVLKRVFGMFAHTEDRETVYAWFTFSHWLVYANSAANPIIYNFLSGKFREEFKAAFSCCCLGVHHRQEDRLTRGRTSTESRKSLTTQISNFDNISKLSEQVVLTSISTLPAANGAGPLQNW
# Assay: IP-1 accumulation assay (IP-One HTRF) in hOX2-CHO cells
# Format: cell-based
# Conditions: 60 min at 37° C., mean of at least two independent experiments, read-out: EC50_OX2R Category
# Description: Example 94: IP-1 Accumulation Assay
# The accumulation of Inositol-1 Monophosphate (IP-1) was measured using IP-One HTRF® Terbium cryptate based assay (Cisbio) in human recombinant OX1 (hOX1) and at OX2 (hOX2) receptors expressed in CHO cells (DiscoverX) according to the manufacturer's instructions for cells tested in suspension.
# hOX1-CHO and hOX2-CHO cells were seeded into white 384-well plates at a density of 20,000 cells/well in Hank's Balanced Salt Solution (HBSS) containing 20 mM HEPES pH 7.4, 50 mM, LiCl and 0.1% and Bovine Serum Albumin (BSA).
# Compounds of the present disclosure were tested in a 11 points concentration response curve (CRC) serially diluted in neat DMSO at 200 fold concentrations and added by Echo acoustic liquid handling (Labcyte) to the cells (0.5% DMSO final in the assay). After 60 min of incubation at 37° C. detection reagents, IP1-d2 tracer and anti-IP1-cryptate were diluted in lysis buffer according to the manufacturer's descriptions and added to the cells.
# Following 60 mi incubation at room temperature, time-resolved fluorescence (HTRF) was measured at 615 nm and 665 nm by Envision Multilabel reader (Perkin Elmer) and the HTRF ratio (A665/A615×10^4) was calculated.
# The IP-1 accumulation response was expressed as percentage of the maximal OX-A response.
# Curve fitting and EC50 estimations were carried out using a four-parameter logistic model using XLfit Software. Mean data of EC50 are calculated from at least two independent experiments performed in duplicates.
row,EC50 [nM],SMILES
1,> 10000,"CCNC(=O)N1CCC2(COC(=O)N2)C1CO[C@H]1CC[C@@H](c2ccccc2)CC1 (mixture of isomers) [Example 18, (CIS)-N-ethyl-2-oxo-6-({[(CIS)-4-phenylcyclohexyl]oxy}methyl)-3-oxa-1,7-diazaspiro[4.4]nonane-7-carboxamide]"
2,1000 to 10000,"CCNC(=O)N1CCC[C@]2(COCC(=O)N2)[C@H]1CO[C@H]1CC[C@@H](c2ccccc2)CC1 (single isomer, unassigned) [Example 2]"
3,1000 to 10000,"C[C@@H]1C[C@@]2(COCC(=O)N2)[C@H](CO[C@H]2CC[C@@H](c3ccccc3)CC2)N1C(=O)N1CC(F)(F)C1 [Example 52, (1R,3R,5S)-2-(3,3-difluoroazetidine-1-carbonyl)-3-methyl-1-({[(CIS)-4-phenylcyclohexyl]oxy}methyl)-9-oxa-2,6-diazaspiro[4.5]decan-7-one]"
4,100 to 1000,"C[C@@H]1C[C@@]2(COCC(=O)N2)[C@H](Cc2cccc(-c3cc(F)cc(F)c3)c2F)N1C(=O)C1CC1F (single isomer, unassigned) [Example 91]"
5,> 10000,"COC(=O)N1CCCC2(CCOC(=O)N2)C1Cc1cccc(-c2ccccc2)c1 (centres unmarked) [Example 19, Methyl 7-({[1,1′-biphenyl]-3-yl}methyl)-2-oxo-3-oxa-1,8-diazaspiro[5.5]undecane-8-carboxylate]"
6,< 100,"CCNC(=O)N1[C@H](C)C[C@@]2(COCC(=O)N2)[C@@H]1Cc1cccc(-c2cc(F)cc(F)c2)c1F [Example 53, (1S,3R,5S)-N-ethyl-3-methyl-7-oxo-1-({2,3′,5′-trifluoro-[1,1′-biphenyl]-3-yl}methyl)-9-oxa-2,6-diazaspiro[4.5]decane-2-carboxamide]"
7,> 10000,"CCNC(=O)N1CCC[C@]2(CCCC(=O)N2)[C@H]1CO[C@H]1CC[C@@H](c2ccccc2)CC1 (single isomer, unassigned) [Example 34]"
8,1000 to 10000,"COCC(=O)N1[C@H](C)C[C@@]2(COCC(=O)N2)[C@@H]1Cc1cccc(-c2cc(F)cc(F)c2)c1F [Example 88, (1S,3R,5S)-2-(2-methoxyacetyl)-3-methyl-1-({2,3′,5′-trifluoro-[1,1′-biphenyl]-3-yl}methyl)-9-oxa-2,6-diazaspiro[4.5]decan-7-one]"
9,100 to 1000,"O=C1N[C@]2(CCO1)[C@H](Cc1cccc(-c3cc(F)cc(F)c3)c1F)N(C(=O)[C@H]1C[C@@H](F)C1)CC2(F)F (relative stereo) [Example 79, rel-(1S,5R)-4,4-difluoro-2-[(CIS)-3-fluorocyclobutanecarbonyl]-1-({2,3′,5′-trifluoro-[1,1′-biphenyl]-3-yl}methyl)-8-oxa-2,6-diazaspiro[4.5]decan-7-one]"
10,100 to 1000,"C[C@@H]1C[C@@]2(COCC(=O)N2)[C@H](Cc2cccc(-c3cc(F)cc(F)c3)c2F)N1C(=O)OCC(F)F [Example 83, 2,2-difluoroethyl (1S,3R,5S)-3-methyl-7-oxo-1-({2,3′,5′-trifluoro-[1,1′-biphenyl]-3-yl}methyl)-9-oxa-2,6-diazaspiro[4.5]decane-2-carboxylate]"
11,< 100,"CCNC(=O)N1CCCC2(CCCC(=O)N2)C1CO[C@H]1CC[C@@H](c2ccccc2)CC1 (mixture of isomers) [Example 33, rel-(6S,7R)-N-ethyl-2-oxo-7-({[(CIS)-4-phenylcyclohexyl]oxy}methyl)-1,8-diazaspiro[5.5]undecane-8-carboxamide]"
12,1000 to 10000,"CCNC(=O)N1CCC2(COCC(=O)N2)C1CO[C@H]1CC[C@@H](c2ccccc2)CC1 (mixture of isomers) [Example 15, (CIS)-N-ethyl-7-oxo-1-({[(CIS)-4-phenylcyclohexyl]oxy}methyl)-9-oxa-2,6-diazaspiro[4.5]decane-2-carboxamide]"
13,1000 to 10000,"COC(=O)N1CCCC2(COCC(=O)N2)C1CO[C@H]1CC[C@@H](c2ccccc2)CC1 (mixture of isomers) [Example 4, Methyl (CIS)-2-oxo-7-({[(CIS)-4-phenylcyclohexyl]oxy}methyl)-4-oxa-1,8-diazaspiro[5.5]undecane-8-carboxylate]"
14,100 to 1000,"CCNC(=O)N1CCCC2(COCS(=O)(=O)N2)C1CO[C@H]1CC[C@@H](c2ccccc2)CC1 (mixture of isomers) [Example 36, rel-(6S,7R)-N-ethyl-2,2-dioxo-7-({[(CIS)-4-phenylcyclohexyl]oxy}methyl)-4-oxa-2λ^6-thia-1,8-diazaspiro[5.5] undecane-8-carboxamide]"
15,< 100,"C[C@@H]1C[C@@]2(COCC(=O)N2)[C@H](CO[C@H]2CC[C@@H](c3ccccc3)CC2)N1c1nnnn1C [Example 64, (1R,3R,5S)-3-methyl-2-(1-methyl-1H-1,2,3,4-tetrazol-5-yl)-1-({[(CIS)-4-phenylcyclohexyl]oxy}methyl)-9-oxa-2,6-diazaspiro[4.5]decan-7-one]"
16,100 to 1000,"C[C@@H]1C[C@@]2(COCC(=O)N2)[C@H](Cc2cccc(-c3cc(F)cc(F)c3)c2F)N1C(=O)C1CC(F)(F)C1 [Example 86, (1S,3R,5S)-2-(3,3-difluorocyclobutanecarbonyl)-3-methyl-1-({2,3′,5′-trifluoro-[1,1′-biphenyl]-3-yl}methyl)-9-oxa-2,6-diazaspiro[4.5]decan-7-one]"
17,< 100,"CCNC(=O)N1CCC[C@@]2(COC(C)C(=O)N2)[C@@H]1CO[C@H]1CC[C@@H](c2ccccc2)CC1 (single isomer, unassigned) [Example 40]"
18,< 100,"C[C@@H]1C[C@@]2(COCC(=O)N2)[C@H](CO[C@H]2CC[C@@H](c3ccccc3)CC2)N1C(=O)NCC(F)F [Example 50, (1R,3R,5S)-N-(2,2-difluoroethyl)-3-methyl-7-oxo-1-({[(CIS)-4-phenylcyclohexyl]oxy}methyl)-9-oxa-2,6-diazaspiro[4.5]decane-2-carboxamide]"
19,< 100,"CCNC(=O)N1CCC[C@@]2(COCC(=O)N2)[C@@H]1CO[C@H]1CC[C@@H](c2ccccc2)CC1 (single isomer, unassigned) [Example 3]"
20,> 10000,"COC(=O)N1CCC[C@]2(COCC(=O)N2)[C@H]1CO[C@H]1CC[C@@H](c2ccccc2)CC1 (single isomer, unassigned) [Example 5]"
21,100 to 1000,"C[C@@H]1C[C@@]2(COCC(=O)N2)[C@H](Cc2cccc(-c3cc(F)cc(F)c3)c2F)N1C(=O)C(C)(C)O [Example 54, (1S,3R,5S)-2-(2-hydroxy-2-methylpropanoyl)-3-methyl-1-({2,3′,5′-trifluoro-[1,1′-biphenyl]-3-yl}methyl)-9-oxa-2,6-diazaspiro[4.5]decan-7-one]"
22,> 10000,"CCNC(=O)N1CCC[C@]2(CNS(=O)(=O)N2)[C@H]1Cc1cccc(-c2ccccc2)c1 (single isomer, unassigned) [Example 32]"
23,< 100,"C[C@@H]1C[C@@]2(COCC(=O)N2)[C@H](CO[C@H]2CC[C@@H](c3ccccc3)CC2)N1C(=O)C1CCC1 [Example 58, (1R,3R,5S)-2-cyclobutanecarbonyl-3-methyl-1-({[(CIS)-4-phenylcyclohexyl]oxy}methyl)-9-oxa-2,6-diazaspiro [4.5]decan-7-one]"
24,> 10000,"COC(=O)N1[C@H](C)C[C@@]2(COCC(=O)N2)[C@@H]1Cc1cccc(-c2cc(F)cc(F)c2)c1F [Example 85, Methyl (1S,3R,5S)-3-methyl-7-oxo-1-({2,3′,5′-trifluoro-[1,1′-biphenyl]-3-yl}methyl)-9-oxa-2,6-diazaspiro[4.5]decane-2-carboxylate]"
25,1000 to 10000,"CCNC(=O)N1CCC[C@]2(COC(F)C(=O)N2)[C@H]1CO[C@H]1CC[C@@H](c2ccccc2)CC1 (single isomer, unassigned) [Example 42]"
26,< 100,"CCNC(=O)N1CCCC2(COC(F)C(=O)N2)C1CO[C@H]1CC[C@@H](c2ccccc2)CC1 (relative stereo) [Example 41, rel-(6S,7R)-N-ethyl-3-fluoro-2-oxo-7-({[(CIS)-4-phenylcyclohexyl]oxy}methyl)-4-oxa-1,8-diazaspiro[5.5] undecane-8-carboxamide]"
27,100 to 1000,"C[C@@H]1C[C@@]2(COCC(=O)N2)[C@H](Cc2cccc(-c3cc(F)cc(F)c3)c2F)N1C(=O)C1CC1F (single isomer, unassigned) [Example 90]"
28,< 100,"O=C1N[C@]2(CCCN(C(=O)[C@H]3C[C@@H](F)C3)[C@H]2CO[C@H]2CC[C@@H](c3ccccc3)CC2)CCO1 (single isomer, unassigned) [Example 66]"
29,100 to 1000,"C[C@@H]1C[C@@]2(COCC(=O)N2)[C@H](Cc2cccc(-c3cc(F)cc(F)c3)c2F)N1C(=O)C1CC1F (single isomer, unassigned) [Example 92]"
